One compound from article PMC4979516, “Quinazoline-based tricyclic compounds that regulate programmed cell death, induce neuronal differentiation, and are curative in animal models for excitotoxicity and hereditary brain disease” (Cell Death Discovery, 2015) can be followed below.

The structures appear in SMILES notation.

In experiment [1] the target is T1, 18 kDa translocator protein (TSPO) (Rattus norvegicus, UniProt P16257).
T1 construct: 400 μl of homogenized rat kidney membranes (5 mg of homogenate/ml); from tissue; host or cells: rat kidney (homogenized membranes)
The experiment can be described thus: TSPO binding, displacement of [3H]PK 11195 in rat kidney membranes. Here is the method:
After incubation for 60 min at 4 °C, samples were filtered under vacuum over Whatman GF/C filters and washed three times with 5 ml of 50 mM Tris-HCl buffer, pH 7.4. The filters were incubated in CytoScint (MP Biomedicals) and radioactivity was measured after 12 h with a 1600 CA Tri-Carb liquid scintillation analyzer (Packard). Inhibitory constant (Ki) values were calculated by the equation Ki=IC50/(1+C/Kd), where C=[^3H]
(In general: In a radioligand displacement assay an active substance lowers the binding of a labelled ligand.)

Experiment [2] concerns U118MG cells. The experiment can be described thus: Mitochondrial membrane potential (JC-1) assay in U118MG cells exposed to glutamate. Format: cell-based, human. The following applies: 25 μM compound, 35 mM glutamate. From the text: JC-1 was used to assay changes in Δψm, as described previously.[71],[79] Owing to charges distributed along JC-1 molecules, they pass unimpaired (charged) mitochondrial membranes and enter the mitochondrial matrix. There the J-molecules form J-aggregates, which emit at 590 nm (orange–red fluorescence). […] The monomers emit at 527 nm (green fluorescence). A decrease in the red–green fluorescence intensity ratio is an indication for mitochondrial depolarization. As a positive control, the proton ionophore carbonyl cyanide m-chlorophenylhydrazone was used as described previously.[71] Cells were collected and prepared for suspension in 10 μg/ml of JC-1 solution in PBS. After incubation at 37 °C for 30 min in the dark, the cells were washed with 0.5 ml of PBS, and the cell suspensions were analyzed with the BD FACSCalibur flow cytometer.

Experiment [3] deals with U118MG cells. The experiment is described as follows: Mitochondrial ROS / cardiolipin oxidation (NAO) assay in U118MG cells exposed to glutamate. Format: cell-based, human. The conditions noted are these: 25 μM compound, 35 mM glutamate. From the text: Cardiolipin is present in the inner mitochondrial membrane, at the contact sites with the outer mitochondrial membrane. By application of NAO, we assayed cardiolipin peroxidation as an indication of mitochondrial ROS generation, as described previously.[71] NAO binds with high affinity to non-oxidized cardiolipin in a 2 : 1 ratio, but with less affinity to oxidized cardiolipin, the latter which is reflected by lower levels of green NAO fluorescence.[78] For our study, cells were collected and centrifuged at 1200×g for 5 min, 4 °C. Cell pellets were re-suspended in 0.5 ml of 0.1 μM NAO and incubated for 30 min at 37 °C in the dark. Then, the cells were washed once with 0.5 ml PBS and transferred into 5 ml FALCON FACS tubes and analyzed with the aid of a BD FACSCalibur flow cytometer using CellQuest software (BD Biosciences, Franklin Lakes, NJ, USA).

For experiment [4], the system named is kainic acid-injected Sprague-Dawley rats. The experiment is described as follows: Systemic kainic acid injection model in rats (seizures, hyper reactivity, hippocampal histology). Format: in vivo. The following applies: rat. From the text: Epileptic seizures in rats, including gnawing, wet dog shakes, head bobbing, forepaw abduction, rearing, forelimb clonus, loss of balance, and convulsions were induced by systemic injections of kainic acid and scored as previously described.[48],[83–85] Such induced seizures typically are accompanied by neurodegeneration in the hippocampus, amydala, pyriform cortex, followed by edema in the diencephalon, and mesencephalon.[43],[44],[86] To test the effects of pretreatment with MGV-1 on the consequences of kainic acid injections, first of all MGV-1 was dissolved in vehicle (10% (v/v) dimethylsulfoxide (DMSO) in sesame oil). After that, 8 weeks old rats received an intraperitoneal injection of 15, 7.5, or 3.75 mg of MGV-1 (per kg/rat), according to previous methods.[48] […] After the kainic acid injections, the rats were monitored continuously for 2 h for the development of epileptic symptoms.[48],[86]
For MGV-1 post-treatment, rats first received a KA injection (9 mg/kg/rat) and then a single injection of 15 mg/kg MGV-1 2 h later, that is, after the typical period for full blown seizure activity. In a single experiment, each experimental group and the vehicle control group consisted of nine rats. Then, for 1 week, daily injections of MGV-1 were given, and the rats were tested daily for hyper reactivity in response to handling.[47] Histological assays were applied 2 weeks after kainic acid injections.
For histological assays, rats that had developed seizures and had subsequently received treatment or control vehicle were sedated with ketamine (75 mg/kg) and xylazine (10 mg/kg) injections until no reflexes were seen and were then perfused with 4% of paraformaldehyde. […] The brains were taken and then stored in paraformaldehyde 4% solution at 4 °C. After 48 h, the solution was changed to 20% sucrose solution at 4 °C. Brains of rats that were post treated with MGV-1 were prepared in the same way. After the brains had sunk they were embedded in optimal cutting temperature compound, frozen with liquid nitrogen, and stored at −70 °C. The brains were cut at −18 °C on a Cryostat Leica (Wetzlar, Germany) CM3050S microtome in 40 μm sections from Bregma −2.8 to −5.8. The sections were kept in PBS without Ca^2+ and Mg^2+ with 0.5% sodium azide at 4 °C. Sections were incubated with primary antibodies against anti-NeuN to label neurons.[87] The appropriate secondary antibodies were applied with VECTASTAIN Peroxidase ABC Kits (Vector Laboratories, Burlingame, CA, USA) based on avidin–biotin, according to the manufacturer’s instructions. The labeled, floating sections were mounted on microscope slides and coverslipped applying glycerol vinyl alcohol aqueous mounting solution. For observations and micrographs, a BH2 Olympus (Tokyo, Japan) upright microscope outfitted with a Nikon (Tokyo, Japan) DSFi1 digital camera was used.

T1 sequence (P16257 whole entry): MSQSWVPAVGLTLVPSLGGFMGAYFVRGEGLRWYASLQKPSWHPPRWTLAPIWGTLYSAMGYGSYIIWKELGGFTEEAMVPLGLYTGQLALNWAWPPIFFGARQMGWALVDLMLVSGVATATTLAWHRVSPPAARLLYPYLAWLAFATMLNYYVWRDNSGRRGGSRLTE

What is called Ki is a measure of affinity in units of concentration, obtained from inhibition or displacement. A low value points to a stronger hold on the target. On to `CN(C)C(=O)Oc1nc(-c2ccccc2)nc2ccccc12` [MGV-1, 2-phenylquinazolin-4-yl dimethylcarbamate], for which, in experiment [1], the affinity corresponds to a Ki of 825 ± 315 nM. The “Prevention of collapse of the ΔΨm induced by glutamate (JC-1)” value with U118MG cells [2] is “prevention of the collapse of the ΔΨm”. The “Prevention of cardiolipin oxidation / mitochondrial ROS generation induced by glutamate (NAO)” value in the experiment with U118MG cells [3] is reported as “prevent cardiolipin oxidation”. In addition, the “Induction of seizures by kainic acid” value in experiment [4] (15 and 7.5 mg/kg MGV-1 i.p. 2 h before kainic acid 9 mg/kg) is reported as “reduction of seizure incidence by half”. The “Hyper reactivity in response to handling, post-treatment” value in experiment [4] (MGV-1 15 mg/kg 2 h after kainic acid, then daily for 6 days) is reported as “restores normal response to handling”. In addition, in experiment [4] (MGV-1 15 mg/kg 2 h after kainic acid, then daily for a week), the “Damage in hippocampal area CA1 (NeuN labeling), post-treatment” value is given as “attenuated damage to area CA1, but less so than MGV-1 pretreatment”. Also, in experiment [4] (MGV-1 2 h before kainic acid, week after injection), the “Hyper reactivity in response to handling, pretreatment” value is given as “attenuates the incidence of the hyper reactivity”. In experiment [4] (MGV-1 i.p. before kainic acid 9 mg/kg, histology 2 weeks later), the “Damage in hippocampal area CA1 (NeuN labeling), pretreatment” value is on record as “well attenuated”.
